Measurements published in paper PMC10877733, “Discovery and Characterization of VU0542270, the First Selective Inhibitor of Vascular Kir6.1/SUR2B KATP Channels” (Molecular Pharmacology, 2024).
pIC50: −log10 of the molar value.

Experiments:
Kir4.1/Kir5.1 = target: T1, Kir4.1/Kir5.1 (Homo sapiens, UniProt P78508+Q9NPI9); assay: Thallium flux selectivity assay Kir4.1/Kir5.1; type: cell-based
T1 construct: expressed in transfected cells
T1 sequence (P78508 1-379): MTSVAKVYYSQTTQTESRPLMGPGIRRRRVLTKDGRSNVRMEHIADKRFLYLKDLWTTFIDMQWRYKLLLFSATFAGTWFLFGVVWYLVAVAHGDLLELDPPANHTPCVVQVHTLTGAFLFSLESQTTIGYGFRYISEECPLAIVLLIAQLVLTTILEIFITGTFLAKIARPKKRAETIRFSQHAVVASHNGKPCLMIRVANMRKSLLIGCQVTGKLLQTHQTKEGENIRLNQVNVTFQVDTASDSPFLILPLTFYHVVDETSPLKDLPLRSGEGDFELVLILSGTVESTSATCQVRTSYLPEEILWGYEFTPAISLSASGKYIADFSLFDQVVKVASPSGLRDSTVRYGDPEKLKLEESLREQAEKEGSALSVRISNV
T1 sequence (Q9NPI9 1-418): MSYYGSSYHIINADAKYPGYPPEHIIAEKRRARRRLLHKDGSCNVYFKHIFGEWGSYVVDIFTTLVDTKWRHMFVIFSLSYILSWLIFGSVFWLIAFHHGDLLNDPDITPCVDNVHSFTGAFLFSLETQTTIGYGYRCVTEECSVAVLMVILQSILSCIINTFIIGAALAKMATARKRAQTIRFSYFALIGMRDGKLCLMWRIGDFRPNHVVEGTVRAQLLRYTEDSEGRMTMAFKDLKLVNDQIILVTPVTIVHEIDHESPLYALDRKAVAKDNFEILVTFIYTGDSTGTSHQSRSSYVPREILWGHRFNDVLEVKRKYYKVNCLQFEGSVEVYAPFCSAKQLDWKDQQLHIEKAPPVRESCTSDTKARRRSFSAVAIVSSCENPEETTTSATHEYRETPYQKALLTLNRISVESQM
Experimental: Quantitative thallium flux assays of Kir6.1/SUR2B activity were performed essentially as described previously for Kir6.2/SUR1 ([Raphemot et al., 2014]; [Kharade et al., 2019]). Stable T-Rex-HEK293-Kir6.1/SUR2B cells or transiently transfected HEK293T cells were plated in polyamine-coated, clear-bottomed, black-walled 384-well plates and were cultured (37°C/5% CO2) overnight in Dulbecco’s modified Eagle’s medium (Gibco, Carlsbad, CA, 11995-065) containing 10% FBS (2 mM Penicillin-Streptomycin). The following day, cells were washed with assay buffer (i.e., Hanks’ balanced salt solution/20 mM HEPES) and loaded for 1 hour with thallium sensor dye Brilliant Thallium (Ion Bioscience, San Marcos, TX) at room temperature. Dye-loaded cells were washed with assay buffer and transferred to a Panoptic Kinetic Imaging Plate Reader (Wavefront Bioscience, Franklin, TN). Control and test compound treatments were for 4 minutes prior to adding 0.5 mM chloride-free thallium stimulus buffer (Ion Bioscience) to initiate thallium flux. […] Selectivity assays against other Kir channels were performed essentially as described previously ([Kharade et al., 2018]; [McClenahan et al., 2022]).

[1] = Rat intravenous pharmacokinetics; type: in vivo; details: for MRT: iv
Experimental: All animal housing and experimental procedures were approved by the Vanderbilt University Animal Care and Use committee and followed the guidelines set forth by the Guide for the Care and Use of Laboratory Animals. VU0542270 was formulated as a solution in ethanol, PEG400, and saline (1:4:5 v/v, respectively) at a concentration of 1 mg/mL and administered as a single 1-mg/kg IV dose (1 mL/kg) to male Sprague Dawley rats (n = 2; between 366–418 g body weights) via injection into a surgically implanted jugular vein catheter. Blood samples were collected serially from a surgically implanted carotid artery catheter in each animal over multiple postadministration time points (0.033, 0.117, 0.25, 0.5, 1, 2, 4, 7, and 24 hours) into chilled K2EDTA anticoagulant-fortified tubes and immediately placed on wet ice. The blood samples were then centrifuged [1700 relative centrifugal force (rcf), 5 minutes, 4°C] to obtain plasma samples, which were stored at −80°C until analysis by liquid chromatography tandem mass spectrometry (LC-MS/MS). The intravenous pharmacokinetic (PK) data were used for the calculation of relevant intravenous pharmacokinetic parameters [plasma clearance (CLp), volume of steady state, elimination half-life (t1/2), and mean residence time]. In vivo pharmacokinetic parameters of VU0542270 were determined from the observed individual animal time-versus-concentration data using noncompartmental analysis via WinNonlin (WNL; v.5.3, Pharsight Corp., Mountain View, CA.).
Plasma samples from the in-life phases of the studies were thawed at ambient temperature (benchtop), and then aliquots (20 µL per sample) were transferred to a 96-shallow-well (V-bottom) plate. Matrix-matched quality-control samples and a standard curve of VU0542270 (1 mg/mL DMSO stock solution) were prepared in blank rat plasma (K2EDTA treated) or blank brain homogenate via serial dilution and transferred (20 µL each) to the plate along with multiple blank plasma and brain homogenate samples. Acetonitrile (120 µL) containing internal standard (50 nM carbamazepine) was added to each well of the plate to precipitate protein. The plate was then centrifuged (4000 rcf, 5 minutes, ambient temperature), and resulting supernatants (60 µL each) were transferred to a new 96-shallow-well (V-bottom) plate containing an equal volume (60 µL per well) of water (Milli-Q purified). The plate was then sealed in preparation for LC-MS/MS analysis (see below).
Prepared samples were injected (10 µL each) onto an AB Sciex triple quad-4500 mass spectrometer system with an Agilent 1290 Infinity Binary Pump and multisampler. Analytes were separated on a reverse phase column Phenomenex Kinetex C18 (50 × 2.1 mm, 5 µm) that was thermostated at 40°C. High-pressure liquid chromatography mobile phase A was 0.5% formic acid in water (pH unadjusted); mobile phase B was 0.5% formic acid in acetonitrile (pH unadjusted). […] The column was re-equilibrated (1 minute) before the next sample injection. The total run time was 2.55 minutes, and the high-pressure liquid chromatography flow rate was 0.5 ml/min. The source temperature was set at 500°C, and mass spectral analyses were performed using a Turbo-Ion spray source in positive ionization mode (5.0-kV spray voltage) and using multiple-reaction monitoring of transitions specific for both analyte (m/z 335.7–236.7 at 35 eV) and internal standard (m/z 237.0–193.9 at 25 eV). Quantitation of VU0542270 was performed via AB Sciex Analyst software using the raw analyte:IS peak area ratios. The typical detection range for VU0542270 was 0.5 ng/mL to ≥5000 ng/mL, utilizing a quadratic equation regression with 1/x^2 weighting.

## Cc1nc(-c2cccs2)sc1CNC(=O)Nc1cccs1 [VU0542270]
Kir4.1/Kir5.1
  pIC50: < 4.52
[1]; male, Sprague Dawley, plasma, 1 mg/kg, rat IV PK
  half-life: 38.4 min
[1]; male, Sprague Dawley, plasma, rat, 1 mg/kg IV, read-out: CLp
  clearance: 17.7 mL/min/kg
[1]; male, Sprague Dawley, plasma, rat, 1 mg/kg IV, read-out: Vss
  Vd: 0.2 L/kg
[1]; male, Sprague Dawley, rat, plasma, 1 mg/kg, 1 mg/kg IV
  MRT: 11.4 min
[1]; male, Sprague Dawley, rat, plasma, 1 mg/kg, rat IV PK
  MRT: 10.2 min
[1]; rat, 1 mg/kg IV
  t1/2: 38.4 min
